{"source": "patent EP2945947B1", "about": "“INHIBITING THE TRANSIENT RECEPTOR POTENTIAL A1 ION CHANNEL” (Merck Sharp & Dohme Corp., priority 2013, dated 2014)", "key": {"human TRPA1": {"target": "human TRPA1 (Homo sapiens, UniProt O75762)", "sequence (O75762 whole entry)": "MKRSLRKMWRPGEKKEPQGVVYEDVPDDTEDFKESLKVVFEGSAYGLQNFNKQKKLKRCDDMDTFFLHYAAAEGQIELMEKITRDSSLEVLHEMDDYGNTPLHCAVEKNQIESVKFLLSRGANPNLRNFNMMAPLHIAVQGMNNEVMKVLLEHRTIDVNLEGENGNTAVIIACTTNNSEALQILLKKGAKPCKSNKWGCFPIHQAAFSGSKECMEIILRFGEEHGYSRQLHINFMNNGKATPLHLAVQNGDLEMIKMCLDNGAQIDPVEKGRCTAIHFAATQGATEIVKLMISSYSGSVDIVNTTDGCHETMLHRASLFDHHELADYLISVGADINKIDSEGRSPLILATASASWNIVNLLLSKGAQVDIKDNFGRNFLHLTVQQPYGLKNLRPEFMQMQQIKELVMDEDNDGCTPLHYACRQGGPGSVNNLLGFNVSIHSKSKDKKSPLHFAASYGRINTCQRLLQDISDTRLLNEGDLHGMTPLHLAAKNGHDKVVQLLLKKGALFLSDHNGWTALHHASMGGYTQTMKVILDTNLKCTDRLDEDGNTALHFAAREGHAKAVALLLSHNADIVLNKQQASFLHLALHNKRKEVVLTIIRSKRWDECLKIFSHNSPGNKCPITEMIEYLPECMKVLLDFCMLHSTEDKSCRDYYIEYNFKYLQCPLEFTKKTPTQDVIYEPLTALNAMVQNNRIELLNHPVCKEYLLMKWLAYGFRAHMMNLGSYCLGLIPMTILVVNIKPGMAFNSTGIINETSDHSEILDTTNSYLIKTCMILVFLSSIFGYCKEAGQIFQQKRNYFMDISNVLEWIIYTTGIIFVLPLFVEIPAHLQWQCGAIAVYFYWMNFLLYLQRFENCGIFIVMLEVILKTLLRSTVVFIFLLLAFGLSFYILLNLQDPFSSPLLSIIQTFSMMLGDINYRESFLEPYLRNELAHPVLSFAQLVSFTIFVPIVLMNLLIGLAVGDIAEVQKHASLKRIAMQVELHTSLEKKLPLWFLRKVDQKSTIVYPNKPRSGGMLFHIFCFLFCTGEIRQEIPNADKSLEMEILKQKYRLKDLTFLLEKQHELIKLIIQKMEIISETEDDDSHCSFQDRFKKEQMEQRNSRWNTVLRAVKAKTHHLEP", "test": "Inhibition of the TRPA1 ion channel, whole cell patch configuration (Example 1)", "format": "cell-based", "conditions": "current activation 10 µM AITC, read-out: Human TRPA1 IC50 Inward Current", "description": "Compounds of Formula (Ia) inhibit the TRPA1 channel, as measured using the method of Example 1. […] Data for TRPA1 inhibition and for TRPA1 selectivity was obtained by this method for the indicated compounds of Formula (Ia), with the relevant data included in Tables 1a - f below. All currents were recorded in whole-cell configuration using EPC-9 and EPC-10 amplifiers and Patchmaster software (HEKA). […] The standard pipette solution consisted of 140mM CsAsp, 10 mM EGTA, 10 mM HEPES, 2.27 mM MgCl2, 1.91 mM CaCl2, 4 mM MgATP, and 0.1-0.3 mM Na2GTP, with pH adjusted to 7.2 with CsOH. In addition, a solution containing 145 mM CsCl, 10 mM HEPES, 10 mM EGTA and 1 mM MgCl2 (pH 7.2 adjusted with CsOH) can be used. The standard bath solution contained 150 mM NaCl, 10 mM HEPES, 10 mM glucose, 4.5 mM KCl, 1 mM EGTA, 3 mM MgCl2, with pH adjusted to 7.4 with NaOH. In some instances, 2 mM CaCl2 was added in place of EGTA and the concentration of MgCl2 was reduced to 1 mM.\nData were collected either by continuous recordings at -60 mV or by applying voltage ramps from a holding potential of 0 mV every 4 s. Continuous recordings were collected at 400 Hz and digitally filtered off-line at 10 Hz for presentation. Voltage ramps were applied from - 100 mV to 100 mV over the course of 400 ms, and data were collected at 10 kHz and filtered at 2.9 kHz. Inward and outward currents were analyzed from the ramps at -80 and 80 mV, respectively. Liquid junction potential correction was not used.\nSolutions were switched using a gravity-fed continuous focal perfusion system. To achieve rapid temperature changes, two temperature control, and perfusion systems were employed simultaneously. For temperatures ≥ 22°C, a Warner Instruments bipolar temperature controller (TC-344B) and inline heater (SHM-8) were used. […] Temperatures were confirmed using a thermistor (Warner Instruments, TA-29), with temperatures at the recorded cell estimated to be within +/- 2°C of those reported.\nThe antagonist effects of compounds of Formula (Ia) against human TRPA1 (\"hTRPA1\") and for some compounds rat TRPA1 (\"rTRPA1\") in a whole cell patch configuration were evaluated using the in vitro assay described above. The current activation tested was 10 µM AITC, and the tested concentrations ranged from 5 µM and 500 nM. Table 1a (Comparative Compounds)"}, "[1]": {"test": "Aqueous solubility in buffered solutions, HPLC (Example 2)", "format": "physicochemical", "conditions": "kinetic from dmso stock, ambient temperature"}, "rats [2]": {"tested_on": "rats", "test": "Rodent formalin pain model (Example 3)", "format": "in vivo", "conditions": "rat; for Minimal Efficacious Dose of Compound in Formalin Model: IV, statistically significant difference vs vehicle at 0 - 2 min (p≤0.05); for Duration of Pain Behavior: first two minutes after formalin, vehicle 88.6", "description": "Compounds of Formula (Ia) are active in rodent models of pain induced by direct activation of the TRPA1 channel with intraplantar injection of the TRPA1 agonist formalin. Compounds of Formula (Ia) were tested in the formalin-induced pain test reported by Abbott et. al. Pain. 1995 Jan;60(1):91-102. Dubuisson et al. describe a method for assessing pain and analgesia in rats. Briefly, dilute formalin (50 µL of 3 % formalin) is injected into the plantar surface of the hind paw. […] The individual responsible for counting the pain behaviors in a particular study is blinded to the treatment groups.\nTable 2 is a data table showing the results from testing compounds of Formula (Ia) in the rodent formalin-induced pain model described in […]. Rats were treated with the compounds of Formula (Ia) at various doses (0.1, 0.3, 1, 1.2, 3, 4, 10, or 30 mg/Kg IV) or with a control composition containing the vehicle (i.e., without a compound of Formula (Ia)). Pain behaviors (flinch, lift, lick, bite) were monitored following intraplantar formalin injection. Referring to Table 2, the minimum effective dose was derived from dose resulting in statistically significant difference in behavior at 0 - 2 min time period as compared with vehicle (p≤0.05)."}, "rat": {"tested_on": "rat", "test": "Rodent cold plate pain model, Complete Freund's Adjuvant (Example 4)", "format": "in vivo", "conditions": "cold plate 1 °C, Figures 1 and 2", "description": "CFA-induced pain test method reported in del Camino et al., J. Neurosci., 30 (45):15165-15174. Briefly, the right hind paw is sensitized to cold temperature (allodynic) by administering 0.1 mL of Complete Freund's Adjuvant (CFA) to that paw. Two to four days later, the time it takes for the animal to lift its CFA-injected paw from the cold surface is recorded compared to its un-injected normal left hind paw. […] To avoid tissue damage, the maximum cut-off time is five minutes. Animals that are allodynic (average PWL to the first three pain behaviors <150 seconds for the CFA-injected hind paw: ∼ ≥50% difference between the normal and CFA-injected paw) are included in the study and subsequently randomized across treatment groups. The following day, the animals in some groups are dosed with a test compound under blinded conditions. Following the one to two hour pre-treatment time, the post-dose PWL readings are taken again. The efficacy of the drug treatment is assessed by comparing the PWL in the drug treatment animals to those that receive the vehicle."}, "[3]": {"tested_on": "Female Sprague Dawley rats", "test": "Rodent acute tolerability test with liver function tests (Example 5)", "format": "in vivo, rat", "design": "key to Alterations in LFT: (↔) indicates blood levels of markers for potential liver damage within normal range; (↑) indicates blood levels of markers for potential liver damage elevated above normal range", "conditions": "for Alterations in LFT / LFT: % upper normal range ALT serum levels / LFT: % upper normal range AST serum levels: about 24 hours post dose", "description": "Compounds of Formula (Ia) were assessed for acute tolerability in a rodent model at dose levels ranging from 100 - 200 mg/kg based upon the minimum efficacious dose of each compound. Female Sprague Dawley rats were administered up to a 10 mL/kg dose volume of each compound in 0.9% saline at appropriate concentrations as an intravenous bolus via the lateral tail vein. The animals were observed immediately post dose and for up to twenty four hours post dose and clinical observations were recorded. Additionally, approximately twenty four hours post dose animals were euthanized and blood taken for serum chemistry analysis with a focus on liver function tests (LFTs). The maximum tolerated single dose and LFT results are summarized in Table 3, where (↔) indicates blood levels of markers for potential liver damage within normal range and (↑) indicates blood levels of markers for potential liver damage elevated above normal range. Referring to the data in Table 3, LFT blood levels of markers for potential liver damage remained within normal range for the compounds of Formula (Ia), while LFTs were elevated for Comparator Compounds including 5-10 fold elevation above normal for ALT and AST blood levels observed upon administration of Comparative Compound 1. […]"}, "[4]": {"test": "Single-dose toxicity studies in rats (Example 7)", "format": "in vivo", "conditions": "rat, in vivo; single IP administration 100 mg/Kg, rats; read-out: plasma Cmax", "description": "(§1) In one single dose PK study conducted in fed and fasted rats, oral administration of Comparative Compound 2 in 30% HPCD produced adverse clinical signs in some of the fasted rats only.\n(§2) Intravenous administration of Comparative Compound 2 (a nanosuspension formulation in 0.5% polysorbate 80 and 0.1% Poloxamer 188 and 0.8%NaCl) at dose levels of 3, 10, and 30 mg/kg as a single slow bolus (∼2 min) to male SD rat was well-tolerated.\n(§3) Intravenous administration of Compound 1-B as a single, 30-minute infusion to SD female rats was well-tolerated at dose levels up to 300 mg/kg. No adverse clinical signs were observed concerning Compound 1-B.\n(§4) Intravenous administration of Compound 5-T as a single, 30-minute infusion to SD female rats was well-tolerated at dose levels up to 300 mg/kg. No adverse clinical signs were observed concerning Compound 5-T.\n(§5) A single oral dose administration of Compound 5-T in a Spray Dried Dispersion (SDD) formulation (a suspension of SDD powder) at nominal doses of 3, 30, 100, and 300 mg/kg to fed female Sprague Dawley rats were well-tolerated. No adverse clinical signs were observed concerning Compound 5-T."}, "rats [5]": {"tested_on": "rats", "test": "Single-dose toxicity studies in rats (Example 7)", "format": "in vivo", "description": "as §1, §2, §3, §4, §5"}, "[6]": {"conditions": "sodium bicarbonate buffer in water for injection/5% dextrose, pH 9.0, 50 mM sodium bicarbonate, read-out: pH 9.0 aqueous solubility"}, "[7]": {"conditions": "sodium phosphate buffer in water for injection/5% dextrose, pH 7.4, 75 mM sodium phosphate, read-out: pH 7.4 aqueous solubility"}}, "note": "Counter-ions that a name gives are not always drawn. Like-named read-outs stand apart in the source and are kept apart here."}
{"smiles": "CC(C(=O)N(COP(=O)(O)O)c1cccc(-c2cnc(N3CCCC3C(F)(F)F)nc2)n1)n1cnc2c1c(=O)n(C)c(=O)n2C", "note": "(stereo not shown) [Compound 1-A, phosphate, sodium salt]", "values": [{"measurement": "IC50", "setting": "human TRPA1", "result": "> 100", "unit": "nM"}, {"measurement": "solubility kinetic at 24 h", "setting": "[1]; [6]", "result": "> 1000", "unit": "µg/mL"}, {"measurement": "solubility kinetic at 24 h", "setting": "[1]; [7]", "result": "> 1000", "unit": "µg/mL"}, {"measurement": "Minimal Efficacious Dose of Compound in Formalin Model", "setting": "rats [2]", "result": 1.2, "unit": "mg/kg"}, {"measurement": "Duration of Pain Behavior", "setting": "rats [2]; dose 0.3 mg/kg IV", "result": 77.7, "unit": "s"}, {"measurement": "Duration of Pain Behavior", "setting": "rats [2]; dose 1.2 mg/kg IV", "result": 43.3, "unit": "s"}, {"measurement": "Duration of Pain Behavior", "setting": "rats [2]; dose 4 mg/kg IV", "result": 19.8, "unit": "s"}, {"measurement": "Paw Withdrawal Latency, CFA cold allodynia", "setting": "rat", "result": "reversal of CFA Cold Allodynia"}, {"measurement": "Alterations in LFT", "setting": "[3]; single IV bolus dose 100 mg/kg", "result": "↔"}, {"measurement": "LFT: % upper normal range ALT serum levels", "setting": "[3]; single IV bolus dose 100 mg/kg", "result": "<100", "unit": "%/<100%"}, {"measurement": "LFT: % upper normal range AST serum levels", "setting": "[3]; single IV bolus dose 100 mg/kg", "result": "<100", "unit": "%/<100%"}]}
{"smiles": "C[C@H]1CCCN1c1ncc(-c2cccc(NC(=O)Cn3cnc4c3c(=O)n(C)c(=O)n4C)n2)cn1", "note": "[Comparator 2, reference compound]", "values": [{"measurement": "IC50", "setting": "human TRPA1", "result": "76 to 100", "unit": "nM"}, {"measurement": "solubility kinetic at 24 h", "setting": "[1]; buffered solution (sodium acetate buffer), pH 4.0, 50mM sodium acetate in 5% dextrose, read-out: pH 4.0 aqueous solubility", "result": 9, "unit": "µg/mL"}, {"measurement": "solubility kinetic at 24 h", "setting": "[1]; buffered solution (sodium bicarbonate buffer), pH 9.0, 50 mM sodium bicarbonate, read-out: pH 9.0 aqueous solubility", "result": 10, "unit": "µg/mL"}, {"measurement": "solubility kinetic at 24 h", "setting": "[1]; buffered solution (sodium phosphate buffer), pH 7.4, 75 mM sodium phosphate, read-out: pH 7.4 aqueous solubility", "result": 7, "unit": "µg/mL"}, {"measurement": "Paw Withdrawal Latency, CFA cold allodynia", "setting": "rat", "result": "significantly less potency"}, {"measurement": "serum biomarkers of hepatotoxicity", "setting": "[3]; animal studies of Example 5", "result": "did not elevate the serum biomarkers of hepatotoxicity"}, {"measurement": "Cmax", "setting": "[4]", "result": "~110", "unit": "µg/mL"}, {"measurement": "tolerability", "setting": "rats [5]; IV single slow bolus, nanosuspension formulation, 3, 10, and 30 mg/kg, male SD rat", "result": "well-tolerated"}, {"measurement": "clinical observations", "setting": "rats [5]; IV single slow bolus, nanosuspension formulation, all three dose levels (3, 10, 30 mg/kg), ~1hr postdose, male SD rat", "result": "Mild flushing/mild swelling of the ears"}, {"measurement": "clinical signs", "setting": "rats [5]; single IP administration 100 mg/Kg, rats, approximately 30 minutes to 4 hours", "result": "mild to moderate lethargy"}, {"measurement": "adverse clinical signs", "setting": "rats [5]; single oral dose in 30% HPCD, 50 mg/kg and 100 mg/kg, fasted female rats only (two of three and one of three)", "result": "labored breathing and red urine"}]}
{"smiles": "C[C@H]1CCCN1c1ncc(-c2cncc(N(COP(=O)(O)O)C(=O)[C@H](C)n3cnc4c3c(=O)n(C)c(=O)n4C)n2)cn1", "note": "[Compound 3-J, ((S)-2-(1,3-dimethyl-2,6-dioxo-1,2,3,6-tetrahydro-7H-purin-7-yl)-N-(6-(2-((S)-2-methylpyrrolidin-1-yl)pyrimidin-5-yl)pyrazin-2-yl)propanamido)methyl dihydrogen phosphate]", "values": [{"measurement": "IC50", "setting": "human TRPA1", "result": "> 100", "unit": "nM"}, {"measurement": "solubility kinetic at 24 h", "setting": "[1]; [6]", "result": "> 1000", "unit": "µg/mL"}, {"measurement": "solubility kinetic at 24 h", "setting": "[1]; [7]", "result": "> 1000", "unit": "µg/mL"}, {"measurement": "Minimal Efficacious Dose of Compound in Formalin Model", "setting": "rats [2]", "result": 3, "unit": "mg/kg"}, {"measurement": "Duration of Pain Behavior", "setting": "rats [2]; dose 3 mg/kg IV", "result": 39.7, "unit": "s"}, {"measurement": "Duration of Pain Behavior", "setting": "rats [2]; dose 10 mg/kg IV", "result": 1.6, "unit": "s"}, {"measurement": "Alterations in LFT", "setting": "[3]; single IV bolus dose 130 mg/kg", "result": "↔"}, {"measurement": "LFT: % upper normal range ALT serum levels", "setting": "[3]; single IV bolus dose 130 mg/kg", "result": "<100", "unit": "%/<100%"}, {"measurement": "LFT: % upper normal range AST serum levels", "setting": "[3]; single IV bolus dose 130 mg/kg", "result": "<100", "unit": "%/<100%"}]}
